From patent publication US12226410B2, “Methods for enhancing cellular clearance of pathological molecules via activation of the cellular protein ykt6” (NORTHWESTERN UNIVERSITY, priority 2019, dated 2025)

Tested on: ykt6
Test: Ykt6 membrane shift analysis (cytosol/membrane fractions) in FTI-treated cultures
Format: cell-based, human
Settings: SH-SY5Y wt a-syn cells and A53T iPSn; 5 nM, 5 days
Protocol: FIGS. 5A, 5B, 5C, 5D, 5E, 5F, and 5G. Reducing farnesyl-ykt6 enhances SNARE assembly and improves the lysosomal targeting of GCase. 5A) Ykt6 membrane shift analysis of SH-SY5Y cells expressing GFP-ykt6 wt or CS (n=3). 5B) Co-IP of GFP-ykt6 and bet1 in A53T iPSn (n=3). 5C) Ykt6 membrane shift analysis in FTI-treated SH-SY5Y wt a-syn cells or A53T iPSn (5 nM farnesyltransferase inhibitors (FTI) LNK-754 (FTI-1) or LNK-3248 (FTI-2) for 5 days) (n=4). Sec22b was measured to assess specificity. 5D) SEC/western blot of FTI-1 treated SH-SY5Y cells. Quantification is shown below. 5E) Co-IP of GFP-ykt6 wt or mutant ykt6-SS, (cannot be palmitoylated or farnesylated) in FTI-treated SHSY5Y cells (5 nM LNK-754, 5d) (n=2). 5F) Immunofluorescence of GCase and LAMP2A in FTI-treated H4 a-syn cells transfected with scrambled (scrb) or ykt6 shRNA (n=3). Scale bar=10 um. 5G) GCase maturation analysis in FTI-treated A53T iPSn by endo H (n=3). Values are the mean+/−SEM, *p<0.05.
Separation of lysates into cytosol and membrane fractions. […] Fractions were then analyzed by western blot analysis as described below. The samples were not analyzed in a blinded manner.
Treatment of cultures with farnesyltransferase inhibitors. […] Cultures were harvested and analyzed as described in the above sections.

C#Cc1cccc(-c2cc(=O)n(C)c3ccc([C@](O)(c4ccc(Cl)cc4)c4cncn4C)cc23)c1 [LNK-754]
membrane association of ykt6: increased membrane association of ykt6 | sec22b levels (specificity): did not change
